Experimental findings from ChEMBL document CHEMBL5653615 (J Biol Chem, 2013) are described below.

The target of assay [1] is Dual specificity tyrosine-phosphorylation-regulated kinase 1A (Homo sapiens) (UniProt Q13627). As to the kind of experiment: Inhibition of human DYRK1 at 18.6 nM by HotSpot assay relative to control.
Assay [2] addresses Ephrin type-A receptor 7 (Homo sapiens) (UniProt Q15375). The assay is described as follows: Inhibition of human EPHA7 at 18.6 nM by HotSpot assay relative to control.
Assay [3] addresses T1, Mitogen-activated protein kinase 13 (Homo sapiens) (UniProt O15264).
T1 sequence (whole entry): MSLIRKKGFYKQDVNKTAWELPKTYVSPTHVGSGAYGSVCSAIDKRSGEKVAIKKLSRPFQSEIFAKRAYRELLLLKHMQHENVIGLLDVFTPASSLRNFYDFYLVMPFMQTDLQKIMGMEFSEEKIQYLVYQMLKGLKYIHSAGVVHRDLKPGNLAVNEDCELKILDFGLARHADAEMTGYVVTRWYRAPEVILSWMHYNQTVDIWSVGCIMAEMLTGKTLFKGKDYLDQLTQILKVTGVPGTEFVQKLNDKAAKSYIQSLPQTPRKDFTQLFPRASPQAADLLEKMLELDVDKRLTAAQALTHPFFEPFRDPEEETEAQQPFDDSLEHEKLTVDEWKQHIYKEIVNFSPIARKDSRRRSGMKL
As to the kind of experiment: Inhibition of human MAPK13 at 18.6 nM by HotSpot assay relative to control.

The target of assay [4] is Death-associated protein kinase 2 (Homo sapiens) (UniProt Q9UIK4). As to the kind of experiment: Inhibition of human DAPK2 at 18.6 nM by HotSpot assay relative to control.
Assay [5] addresses Serine/threonine-protein kinase 24 (Homo sapiens) (UniProt Q9Y6E0). As to the kind of experiment: Inhibition of human STK24 at 18.6 nM by HotSpot assay relative to control.
The target of assay [6] is Platelet-derived growth factor receptor beta (Homo sapiens) (UniProt P09619). The assay is described as follows: Inhibition of human PDGFRb at 18.6 nM by HotSpot assay relative to control.
For assay [7], the target named is T2, Aurora kinase C (Homo sapiens) (UniProt Q9UQB9).
T2 sequence (whole entry): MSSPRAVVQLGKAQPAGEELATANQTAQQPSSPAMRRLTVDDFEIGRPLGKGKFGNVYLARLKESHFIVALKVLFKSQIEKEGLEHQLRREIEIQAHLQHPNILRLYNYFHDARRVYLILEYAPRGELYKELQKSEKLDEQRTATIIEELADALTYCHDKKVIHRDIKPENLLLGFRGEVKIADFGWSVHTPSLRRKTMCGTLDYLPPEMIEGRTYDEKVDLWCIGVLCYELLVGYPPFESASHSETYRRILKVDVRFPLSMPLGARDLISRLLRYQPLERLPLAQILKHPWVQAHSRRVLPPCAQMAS
As to the kind of experiment: Inhibition of human Aurora C at 18.6 nM by HotSpot assay relative to control.

Assay [8] has as its target Tyrosine-protein kinase BTK (Homo sapiens) (UniProt Q06187). The assay is described as follows: Inhibition of human BTK at 18.6 nM by HotSpot assay relative to control.
Assay [9] deals with LIM domain kinase 1 (Homo sapiens) (UniProt P53667). The assay is described as follows: Inhibition of human LIMK1 at 18.6 nM by HotSpot assay relative to control.
The species entered for the next assay is Homo sapiens. As to the kind of experiment: Inhibition of human CDK2/cyclin A at 18.6 nM by HotSpot assay relative to control.
The target in assay [10] is Serine/threonine-protein kinase PLK3 (Homo sapiens) (UniProt Q9H4B4). The assay is described as follows: Inhibition of human PLK3 at 18.6 nM by HotSpot assay relative to control.
Sequence of Serine/threonine-protein kinase PLK3 (Homo sapiens) (Q9H4B4 whole entry, looked up): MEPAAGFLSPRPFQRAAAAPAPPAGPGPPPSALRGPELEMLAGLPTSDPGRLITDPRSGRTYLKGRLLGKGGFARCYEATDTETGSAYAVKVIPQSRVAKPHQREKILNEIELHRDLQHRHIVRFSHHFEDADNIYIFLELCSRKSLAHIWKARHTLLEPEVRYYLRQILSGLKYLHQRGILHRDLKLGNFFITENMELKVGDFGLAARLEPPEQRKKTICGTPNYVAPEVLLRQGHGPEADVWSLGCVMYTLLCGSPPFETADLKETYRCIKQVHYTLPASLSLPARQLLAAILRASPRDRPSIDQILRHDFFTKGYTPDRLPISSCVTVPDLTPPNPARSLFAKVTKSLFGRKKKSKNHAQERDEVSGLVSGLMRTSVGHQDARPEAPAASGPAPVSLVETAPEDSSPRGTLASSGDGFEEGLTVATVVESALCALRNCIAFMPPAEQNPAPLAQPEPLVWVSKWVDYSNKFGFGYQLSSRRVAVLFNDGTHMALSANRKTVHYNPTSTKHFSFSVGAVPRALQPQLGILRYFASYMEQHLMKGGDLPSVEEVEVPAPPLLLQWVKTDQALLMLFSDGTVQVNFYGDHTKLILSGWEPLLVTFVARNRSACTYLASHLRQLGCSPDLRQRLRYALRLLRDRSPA
Assay [11] has as its target Activated CDC42 kinase 1 (Homo sapiens) (UniProt Q07912). As to the kind of experiment: Inhibition of human ACK1 at 18.6 nM by HotSpot assay relative to control.
The target of assay [12] is MAP kinase-interacting serine/threonine-protein kinase 1 (Homo sapiens) (UniProt Q9BUB5). The assay is described as follows: Inhibition of human MNK1 at 1.82 nM by HotSpot assay relative to control.
Assay [13] has as its target Serine/threonine-protein kinase PAK 4 (Homo sapiens) (UniProt O96013). The assay is described as follows: Inhibition of human PAK4 at 1.82 nM by HotSpot assay relative to control.
For assay [14], the target named is Serine/threonine-protein kinase B-raf (Homo sapiens) (UniProt P15056). The assay is described as follows: Inhibition of human BRAF at 1.82 nM by HotSpot assay relative to control.
Sequence of Serine/threonine-protein kinase B-raf (Homo sapiens) (P15056 whole entry): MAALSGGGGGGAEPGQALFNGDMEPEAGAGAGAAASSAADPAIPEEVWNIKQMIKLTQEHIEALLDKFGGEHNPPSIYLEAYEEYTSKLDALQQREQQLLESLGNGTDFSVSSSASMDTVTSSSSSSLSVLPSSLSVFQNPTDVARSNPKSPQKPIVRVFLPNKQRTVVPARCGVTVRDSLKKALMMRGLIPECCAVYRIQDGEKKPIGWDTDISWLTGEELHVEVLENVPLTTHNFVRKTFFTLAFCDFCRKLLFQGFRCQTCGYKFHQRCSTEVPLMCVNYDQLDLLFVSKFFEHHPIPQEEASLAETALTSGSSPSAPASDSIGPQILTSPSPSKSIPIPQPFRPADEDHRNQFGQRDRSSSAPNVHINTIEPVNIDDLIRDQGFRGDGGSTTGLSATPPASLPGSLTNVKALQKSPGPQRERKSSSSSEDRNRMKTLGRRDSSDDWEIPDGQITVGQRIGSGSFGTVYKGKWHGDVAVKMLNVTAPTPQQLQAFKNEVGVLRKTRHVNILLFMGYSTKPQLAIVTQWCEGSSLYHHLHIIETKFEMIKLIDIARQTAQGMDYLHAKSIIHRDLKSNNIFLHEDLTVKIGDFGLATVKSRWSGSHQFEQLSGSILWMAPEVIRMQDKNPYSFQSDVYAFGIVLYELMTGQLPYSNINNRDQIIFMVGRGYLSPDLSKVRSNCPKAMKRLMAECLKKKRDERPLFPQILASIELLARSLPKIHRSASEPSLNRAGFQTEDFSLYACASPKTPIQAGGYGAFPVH
Assay [15] has as its target T3, Lymphokine-activated killer T-cell-originated protein kinase (Homo sapiens) (UniProt Q96KB5).
T3 sequence (whole entry): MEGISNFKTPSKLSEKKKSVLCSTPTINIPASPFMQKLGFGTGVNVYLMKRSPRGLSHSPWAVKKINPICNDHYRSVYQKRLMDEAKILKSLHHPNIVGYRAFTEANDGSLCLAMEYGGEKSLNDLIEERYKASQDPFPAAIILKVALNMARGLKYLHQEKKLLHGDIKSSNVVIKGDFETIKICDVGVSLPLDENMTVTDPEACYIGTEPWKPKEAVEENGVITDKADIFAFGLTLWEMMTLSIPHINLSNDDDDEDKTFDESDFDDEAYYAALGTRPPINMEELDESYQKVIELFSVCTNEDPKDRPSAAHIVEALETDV
The assay is described as follows: Inhibition of human TOPK at 1.82 nM by HotSpot assay relative to control.

In assay [16] the target is Tyrosine-protein kinase FRK (Homo sapiens) (UniProt P42685). As to the kind of experiment: Inhibition of human FRK at 1.82 nM by HotSpot assay relative to control.
Sequence of Tyrosine-protein kinase FRK (Homo sapiens) (P42685 whole entry): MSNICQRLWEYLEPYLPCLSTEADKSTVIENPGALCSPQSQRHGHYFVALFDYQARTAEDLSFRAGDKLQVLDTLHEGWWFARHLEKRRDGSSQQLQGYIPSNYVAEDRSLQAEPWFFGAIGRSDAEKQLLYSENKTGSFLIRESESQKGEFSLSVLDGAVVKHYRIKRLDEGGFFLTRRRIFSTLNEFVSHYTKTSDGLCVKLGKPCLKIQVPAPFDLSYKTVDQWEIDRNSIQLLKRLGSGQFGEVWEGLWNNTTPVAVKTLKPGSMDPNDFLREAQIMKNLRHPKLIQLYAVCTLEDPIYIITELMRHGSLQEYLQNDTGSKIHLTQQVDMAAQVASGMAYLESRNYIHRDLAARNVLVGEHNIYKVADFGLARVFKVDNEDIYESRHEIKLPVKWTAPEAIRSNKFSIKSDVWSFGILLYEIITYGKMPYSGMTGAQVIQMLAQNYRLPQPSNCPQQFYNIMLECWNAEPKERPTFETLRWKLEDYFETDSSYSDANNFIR
The target in assay [17] is SRSF protein kinase 1 (Homo sapiens) (UniProt Q96SB4). The assay is described as follows: Inhibition of human SRPK1 at 1.82 nM by HotSpot assay relative to control.
In assay [18] the target is T4, Serine/threonine-protein kinase Chk1 (Homo sapiens) (UniProt O14757).
T4 sequence (whole entry): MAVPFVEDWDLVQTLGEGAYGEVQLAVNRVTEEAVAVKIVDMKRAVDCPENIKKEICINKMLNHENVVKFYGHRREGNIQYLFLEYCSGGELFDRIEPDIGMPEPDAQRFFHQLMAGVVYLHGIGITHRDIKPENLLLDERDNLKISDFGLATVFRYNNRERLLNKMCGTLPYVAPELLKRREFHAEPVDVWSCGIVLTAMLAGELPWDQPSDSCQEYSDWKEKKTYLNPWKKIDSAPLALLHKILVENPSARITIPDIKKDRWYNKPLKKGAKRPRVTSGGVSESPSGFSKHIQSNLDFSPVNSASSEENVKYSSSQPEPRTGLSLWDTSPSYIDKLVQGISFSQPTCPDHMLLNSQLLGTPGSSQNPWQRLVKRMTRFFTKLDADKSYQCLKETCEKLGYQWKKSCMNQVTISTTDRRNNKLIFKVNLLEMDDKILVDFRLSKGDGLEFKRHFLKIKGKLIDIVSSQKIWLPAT
As to the kind of experiment: Inhibition of human CHK1 at 1.82 nM by HotSpot assay relative to control.

Assay [19] addresses PAS domain-containing serine/threonine-protein kinase (Homo sapiens) (UniProt Q96RG2). The assay is described as follows: Inhibition of human PASK at 1.82 nM by HotSpot assay relative to control.

By inhibition is commonly meant the relative decrease from the control value, in per cent.

Sequence of Ephrin type-A receptor 7 (Homo sapiens) (Q15375 28-998 limits assumed): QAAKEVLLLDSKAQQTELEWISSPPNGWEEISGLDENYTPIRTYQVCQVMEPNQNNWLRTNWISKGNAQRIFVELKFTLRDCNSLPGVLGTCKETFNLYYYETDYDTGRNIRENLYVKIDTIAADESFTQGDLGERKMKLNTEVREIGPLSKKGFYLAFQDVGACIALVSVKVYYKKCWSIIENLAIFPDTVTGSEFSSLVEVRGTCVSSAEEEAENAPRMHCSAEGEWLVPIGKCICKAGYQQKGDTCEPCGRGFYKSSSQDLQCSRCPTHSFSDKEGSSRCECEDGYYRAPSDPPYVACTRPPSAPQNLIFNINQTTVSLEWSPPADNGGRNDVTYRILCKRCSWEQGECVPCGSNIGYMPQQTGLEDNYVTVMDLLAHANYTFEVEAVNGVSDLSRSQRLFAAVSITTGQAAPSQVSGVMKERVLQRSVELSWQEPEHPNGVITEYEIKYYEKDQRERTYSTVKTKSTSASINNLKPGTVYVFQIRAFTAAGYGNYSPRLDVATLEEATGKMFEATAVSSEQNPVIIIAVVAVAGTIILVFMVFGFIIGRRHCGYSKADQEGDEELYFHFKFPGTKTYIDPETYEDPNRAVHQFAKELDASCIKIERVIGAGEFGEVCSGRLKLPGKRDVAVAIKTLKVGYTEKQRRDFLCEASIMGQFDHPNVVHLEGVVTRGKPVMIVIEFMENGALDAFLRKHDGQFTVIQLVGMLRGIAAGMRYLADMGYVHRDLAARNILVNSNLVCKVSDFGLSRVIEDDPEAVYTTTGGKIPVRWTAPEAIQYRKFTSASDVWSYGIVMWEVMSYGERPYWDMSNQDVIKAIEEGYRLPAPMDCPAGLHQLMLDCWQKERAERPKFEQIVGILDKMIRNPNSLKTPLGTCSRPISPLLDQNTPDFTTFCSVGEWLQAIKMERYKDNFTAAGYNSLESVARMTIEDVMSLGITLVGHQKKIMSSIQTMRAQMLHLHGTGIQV
Sequence of Serine/threonine-protein kinase 24 (Homo sapiens) (Q9Y6E0 whole entry, looked up): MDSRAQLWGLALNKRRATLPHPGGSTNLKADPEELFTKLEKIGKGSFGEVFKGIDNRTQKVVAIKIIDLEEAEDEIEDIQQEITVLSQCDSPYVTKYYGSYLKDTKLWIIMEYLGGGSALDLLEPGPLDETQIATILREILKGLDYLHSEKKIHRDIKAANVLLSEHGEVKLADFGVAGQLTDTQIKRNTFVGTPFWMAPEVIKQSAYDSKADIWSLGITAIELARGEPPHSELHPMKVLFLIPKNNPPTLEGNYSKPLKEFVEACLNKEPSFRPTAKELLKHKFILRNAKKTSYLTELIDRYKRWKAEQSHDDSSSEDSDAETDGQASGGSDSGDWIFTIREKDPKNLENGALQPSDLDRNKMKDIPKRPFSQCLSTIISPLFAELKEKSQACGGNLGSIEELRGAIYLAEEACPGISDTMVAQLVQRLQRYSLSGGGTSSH
Sequence of Activated CDC42 kinase 1 (Homo sapiens) (Q07912 whole entry, looked up): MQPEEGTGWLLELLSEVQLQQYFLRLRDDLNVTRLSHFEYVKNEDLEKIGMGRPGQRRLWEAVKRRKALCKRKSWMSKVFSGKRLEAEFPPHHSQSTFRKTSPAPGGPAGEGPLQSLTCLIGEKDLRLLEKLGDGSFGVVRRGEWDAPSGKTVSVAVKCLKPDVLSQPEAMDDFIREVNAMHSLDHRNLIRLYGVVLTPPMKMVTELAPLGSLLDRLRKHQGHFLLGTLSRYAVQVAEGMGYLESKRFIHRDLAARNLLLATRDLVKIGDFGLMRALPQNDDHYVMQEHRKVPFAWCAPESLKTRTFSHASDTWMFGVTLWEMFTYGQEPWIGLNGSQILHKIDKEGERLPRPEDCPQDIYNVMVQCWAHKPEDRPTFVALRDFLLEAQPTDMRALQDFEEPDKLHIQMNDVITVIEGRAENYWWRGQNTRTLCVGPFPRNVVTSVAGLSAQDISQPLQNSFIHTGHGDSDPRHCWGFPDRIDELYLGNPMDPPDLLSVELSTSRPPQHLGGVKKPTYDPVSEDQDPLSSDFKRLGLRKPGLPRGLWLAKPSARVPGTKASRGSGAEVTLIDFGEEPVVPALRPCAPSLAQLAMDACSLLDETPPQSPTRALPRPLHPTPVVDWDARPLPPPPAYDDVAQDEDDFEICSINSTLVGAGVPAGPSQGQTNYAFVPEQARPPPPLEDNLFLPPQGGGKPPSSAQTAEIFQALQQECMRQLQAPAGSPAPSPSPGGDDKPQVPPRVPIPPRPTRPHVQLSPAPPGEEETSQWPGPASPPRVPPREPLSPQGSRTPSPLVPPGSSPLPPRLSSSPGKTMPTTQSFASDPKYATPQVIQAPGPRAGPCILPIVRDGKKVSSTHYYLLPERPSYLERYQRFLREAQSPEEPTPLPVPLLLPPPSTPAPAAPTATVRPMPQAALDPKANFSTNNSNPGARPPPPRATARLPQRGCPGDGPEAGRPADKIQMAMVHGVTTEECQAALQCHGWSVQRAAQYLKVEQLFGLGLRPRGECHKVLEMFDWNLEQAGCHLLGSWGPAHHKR
Sequence of Serine/threonine-protein kinase PAK 4 (Homo sapiens) (O96013 whole entry, looked up): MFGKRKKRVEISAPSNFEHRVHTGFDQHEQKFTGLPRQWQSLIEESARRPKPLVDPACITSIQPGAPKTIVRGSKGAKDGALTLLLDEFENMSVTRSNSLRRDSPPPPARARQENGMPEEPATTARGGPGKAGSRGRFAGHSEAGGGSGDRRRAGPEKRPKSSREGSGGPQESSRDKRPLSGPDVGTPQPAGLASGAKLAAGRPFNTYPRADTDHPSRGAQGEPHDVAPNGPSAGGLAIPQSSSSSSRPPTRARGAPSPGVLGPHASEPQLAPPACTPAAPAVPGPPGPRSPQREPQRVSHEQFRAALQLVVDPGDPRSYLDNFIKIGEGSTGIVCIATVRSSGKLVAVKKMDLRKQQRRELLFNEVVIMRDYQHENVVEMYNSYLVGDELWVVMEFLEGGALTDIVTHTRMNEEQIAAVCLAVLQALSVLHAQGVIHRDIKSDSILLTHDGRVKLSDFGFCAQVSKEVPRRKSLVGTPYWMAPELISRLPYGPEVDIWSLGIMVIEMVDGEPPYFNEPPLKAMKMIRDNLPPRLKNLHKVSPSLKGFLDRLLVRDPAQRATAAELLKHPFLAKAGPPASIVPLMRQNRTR

Consider `C[C@]1(O)C[C@@H](c2nc(-c3ccc4ccc(-c5ccccc5)nc4c3)c3c(N)nccn32)C1`, for which the inhibition in [1] is -1.6%; in assay [2], 2.17%; in assay [3], -4.06%; in assay [4], 0.74%; in [5], 3.3%; in [6], 8.57%. Besides, the inhibition is -7.85% in [7]; -1.94% in [8]; -8.11% in [9]; -1.46% in the assay filed under Homo sapiens; 3.09% in assay [10]; 3% in assay [11].

Consider `C[C@@]1(C(=O)Nc2ccc(F)nc2)CCCN1c1nc(Nc2cc(C3CC3)n[nH]2)c2cccn2n1`, for which the inhibition in assay [12] was 5.01%; in assay [13], -3.15%; in [14] it was 7.49%; in assay [15] it was 8.44%; in assay [16] it was 0.97%; in assay [17], -4.32%. The inhibition is -4.39% in assay [18] and -2.46% in assay [19].
